Data published in PMC12108418, “Broad-Spectrum Gramicidin S Derivatives with Potent Activity Against Multidrug-Resistant Gram-Negative ESKAPE Pathogens” (Antibiotics, 2025).
≈ marks a conversion by molar mass, not a printed value. Like-named read-outs stand apart in the source and are kept apart here. Square brackets hold non-standard residues; d marks the D form. Peptide text beside a SMILES is read from it. Tle = CC(C)(C)[C@H](N)C(=O)O; Orn = NCCC[C@H](N)C(=O)O; Abu = CC[C@H](N)C(=O)O

Legend:
[1] = Analytical RP-HPLC retention time as measure of hydrophobicity; type: physicochemical; details: measure of global hydrophobicity, Phenomenex Kinetex 2.6 µm C18 (150 × 4.6 mm), 0.7 mL/min, ACN/TFA (100:0.0008) and water/TFA (100:0.001)
Protocol: Peptide purification was carried out via preparative RP-HPLC on an Agilent 1260 Infinity II system (Santa Clara, CA, USA) equipped with a 21.2 × 150 mm Agilent ZORBAX Eclipse Plus C18 column, operating at a flow rate of 25 mL/min. The mobile phase consisted of acetonitrile containing 0.0008% trifluoroacetic acid (v/v) as the organic phase and water with 0.001% TFA as the aqueous phase. […] Analytical HPLC analysis was performed on a Hewlett-Packard Series 1100 instrument using a Phenomenex (Torrance, CA, USA) Kinetex C18 column (150 mm × 4.6 mm, 2.6 µm particle size), under identical solvent conditions, to confirm purity.
HRMS of peptide 1. […] HRMS of peptide 2. […] HRMS of peptide 3. […] HRMS of peptide 4. […] HRMS of peptide 5. […] HRMS of peptide 6. […] HRMS of peptide 7. […] HRMS of peptide 8. […] HRMS of peptide 9. […] HRMS of peptide 10. […] HRMS of peptide 11. […] HRMS of peptide 12. […] HRMS of peptide 13. […] HRMS of peptide 14. […] HRMS of peptide 15. […] HRMS of peptide 16. […] HRMS of peptide 17. […] HRMS of peptide 18. […] HRMS of peptide 19.

[2] = system: Escherichia coli (ATCC 25922); type: cell-based
Protocol: (§1) The antibacterial efficacy of peptides was assessed using the broth microdilution method in accordance with Clinical and Laboratory Standards Institute (CLSI) guidelines (M07-A10, 2015 [33]). The minimum inhibitory concentrations (MICs) were determined against Escherichia coli (ATCC 25922), Klebsiella pneumoniae (ATCC 33495), Pseudomonas aeruginosa (ATCC 27853), Acinetobacter baumannii (ATCC 19606), and Staphylococcus aureus (ATCC 29213 and ATCC USA300). Bacterial suspensions were standardised to 5 × 10^4 colony-forming units (CFUs)/well in cation-adjusted Mueller–Hinton broth (CAMHB). Peptides were dissolved in 25% DMSO and serially diluted two-fold across 96-well plates, reaching final concentrations ranging from 256 to 0.125 µg/mL. The wells were inoculated, ensuring a final volume of 100 µL per well, with a DMSO concentration of 1% (v/v) to minimise solvent interference. […] Vancomycin was used as the positive control for S. aureus. Polymyxin B served as the positive control for Gram-negative bacteria. CAMHB with 1% (v/v) DMSO (without peptides) was used as the negative control. All experiments were performed in triplicate (n = 3). Bacterial isolates were stored in tryptone soy broth with 30% glycerol at −80 °C for long-term preservation.

[3] = system: Klebsiella pneumoniae (ATCC 33495); type: cell-based
Protocol: as §1

[4] = system: Acinetobacter baumannii (ATCC 19606); type: cell-based
Protocol: as §1

[5] = system: Pseudomonas aeruginosa (ATCC 27853); type: cell-based
Protocol: as §1

human red blood cells = experiment: Haemolysis assay; type: cell-based; details: 1% human RBC suspension in HEPES-buffered saline pH 7.4, pooled from three donors, 0.125 to 256 μg/mL, 1 h, 37 °C, absorbance 540 and 410 nm, triplicate (n = 3)
Protocol: To evaluate haemolytic activity, fresh human blood was collected from three unrelated healthy volunteers to ensure donor variability. Red blood cells (RBCs) were separated by centrifugation at 3000 rpm for 5 min at 4 °C, followed by washing in HEPES-buffered saline (HBS; 150 mM NaCl, 5 mM HEPES-NaOH, pH 7.4). The samples were pooled, mixed, and all experiments were performed in triplicate to enhance reproducibility. Blood samples were used within 48 h of collection to preserve erythrocyte integrity. A 1% RBC suspension in HBS (200 μL) was distributed into 96-well plates, and peptide solutions (100 μL) were added to reach final concentrations ranging from 0.125 to 256 μg/mL. After a 1 h incubation at 37 °C, the plates were centrifuged (3000 rpm, 5 min, 4 °C), and 80 μL of each supernatant was transferred to a fresh microplate. Absorbance readings were taken at 540 nm and 410 nm to assess protein content and haemoglobin release, respectively. HBS served as a negative control and 1% Triton X-100 as a positive control (n = 3).

[6] = broth microdilution in CAMHB, 5 × 10^4 CFU/well, 1% DMSO, 37 °C, 16–20 h, 256 to 0.125 µg/mL, triplicate (n = 3)

SMILES | RP-HPLC retention time tR [1] | MIC E. coli ATCC 25922 ([2]; ATCC 25922) | MIC K. pneumonia ATCC 33495 ([3]; ATCC 33495) | MIC A. baumannii ATCC 19606 ([4]; ATCC 19606) | MIC P. aeruginosa ATCC 27853 ([5]; ATCC 27853) | HC50 (50% haemolytic concentration) (human red blood cells) | MIC E. coli ATCC 25922 [2, 6] | MIC K. pneumonia ATCC 33495 [3, 6] | MIC A. baumannii ATCC 19606 [4, 6] | MIC P. aeruginosa ATCC 27853 [5, 6]
CC(C)(C)[C@@H]1NC(=O)[C@H](CCCN)NC(=O)[C@H](C(C)(C)C)NC(=O)[C@@H]2CCCN2C(=O)[C@@H](Cc2ccccc2)NC(=O)[C@H](C(C)(C)C)NC(=O)[C@H](CCCN)NC(=O)[C@H](C(C)(C)C)NC(=O)[C@@H]2CCCN2C(=O)[C@@H](Cc2ccccc2)NC1=O [Peptide 1] (cyclo([Orn][Tle][dF]P[Tle][Orn][Tle][dF]P[Tle])) | 19.90 min | 32 µg/mL (≈ 27.4 µM) | 128 µg/mL (≈ 109 µM) | 4 µg/mL (≈ 3.42 µM) | 64 µg/mL (≈ 54.7 µM) | – | – | – | – | –
CC(C)(C)[C@@H]1NC(=O)[C@H](CCCN)NC(=O)[C@H](C(C)(C)C)NC(=O)[C@@H]2CCCN2C(=O)[C@@H](Cc2ccccc2)NC(=O)[C@H](C(C)(C)C)NC(=O)[C@H](CCCN)NC(=O)[C@H](C(C)(C)C)NC(=O)[C@@H]2CCCN2C(=O)[C@@H](CCCNC(=N)N)NC1=O [Peptide 7] (cyclo([Orn][Tle][dF]P[Tle][Orn][Tle][dR]P[Tle])) | 16.92 min | 16 µg/mL (≈ 13.6 µM) | 32 µg/mL (≈ 27.2 µM) | 4 µg/mL (≈ 3.39 µM) | 32 µg/mL (≈ 27.2 µM) | – | – | – | – | –
CC(C)C[C@@H]1NC(=O)[C@H](CCCN)NC(=O)[C@H](C(C)(C)C)NC(=O)[C@@H]2CCCN2C(=O)[C@@H](Cc2ccccc2)NC(=O)[C@H](CC(C)C)NC(=O)[C@H](CCCN)NC(=O)[C@H](C(C)(C)C)NC(=O)[C@@H]2CCCN2C(=O)[C@@H](Cc2ccccc2)NC1=O [Peptide 13] (cyclo(L[dF]P[Tle][Orn]L[dF]P[Tle][Orn])) | – | – | – | – | – | 6.26 ± 0.35 µg/mL | 32 µg/mL (≈ 27.4 µM) | 256 µg/mL (≈ 219 µM) | 32 µg/mL (≈ 27.4 µM) | 128 µg/mL (≈ 109 µM)
CC(C)C[C@@H]1NC(=O)[C@H](CCCN)NC(=O)[C@H](C(C)C)NC(=O)[C@@H]2CCCN2C(=O)[C@@H](Cc2ccccc2)NC(=O)[C@H](CC(C)C)NC(=O)[C@H](CCCNC(=N)N)NC(=O)[C@H](C(C)C)NC(=O)[C@@H]2CCCN2C(=O)[C@@H](CCCNC(=N)N)NC1=O [Peptide 15] (cyclo(L[dF]PV[Orn]L[dR]PVR)) | 16.47 min | 16 µg/mL (≈ 13.4 µM) | 16 µg/mL (≈ 13.4 µM) | 8 µg/mL (≈ 6.71 µM) | – | – | – | – | – | 32 µg/mL (≈ 26.8 µM)
CC[C@@H]1NC(=O)[C@@H]2CCCN2C(=O)[C@@H](Cc2ccccc2)NC(=O)[C@H](CC(C)C)NC(=O)[C@H](CCCNC(=N)N)NC(=O)[C@H](C(C)C)NC(=O)[C@@H]2CCCN2C(=O)[C@@H](CCCNC(=N)N)NC(=O)[C@H](CC(C)C)NC(=O)[C@H](CCCN)NC1=O [Peptide 16] (cyclo([Abu][Orn]L[dR]PVRL[dF]P)) | 16.24 min | 32 µg/mL (≈ 27.2 µM) | 32 µg/mL (≈ 27.2 µM) | 16 µg/mL (≈ 13.6 µM) | – | – | – | – | – | 64 µg/mL (≈ 54.3 µM)
CC[C@@H]1NC(=O)[C@@H]2CCCN2C(=O)[C@@H](CCCNC(=N)N)NC(=O)[C@H](CC(C)C)NC(=O)[C@H](CCCN)NC(=O)[C@H](C(C)C)NC(=O)[C@@H]2CCCN2C(=O)[C@@H](Cc2ccccc2)NC(=O)[C@H](CC(C)C)NC(=O)[C@H](CCCNC(=N)N)NC1=O [Peptide 17] (cyclo([Abu]RL[dF]PV[Orn]L[dR]P)) | 16.32 min | 32 µg/mL (≈ 27.2 µM) | 32 µg/mL (≈ 27.2 µM) | 16 µg/mL (≈ 13.6 µM) | – | – | – | – | – | 64 µg/mL (≈ 54.3 µM)
CC[C@@H]1NC(=O)[C@@H]2CCCN2C(=O)[C@@H](CCCNC(=N)N)NC(=O)[C@H](CC(C)C)NC(=O)[C@H](CCCN)NC(=O)[C@H](CC)NC(=O)[C@@H]2CCCN2C(=O)[C@@H](Cc2ccccc2)NC(=O)[C@H](CC(C)C)NC(=O)[C@H](CCCNC(=N)N)NC1=O [Peptide 18] (cyclo([Abu][Orn]L[dR]P[Abu]RL[dF]P)) | 16.03 min | 64 µg/mL (≈ 55 µM) | 64 µg/mL (≈ 55 µM) | 32 µg/mL (≈ 27.5 µM) | 128 µg/mL (≈ 110 µM) | – | – | – | – | –
CC(C)C[C@@H]1NC(=O)[C@H](CCCN)NC(=O)[C@H](C(C)(C)C)NC(=O)[C@@H]2CCCN2C(=O)[C@@H](Cc2ccccc2)NC(=O)[C@H](CC(C)C)NC(=O)[C@H](CCCN)NC(=O)[C@H](C(C)(C)C)NC(=O)[C@@H]2CCCN2C(=O)[C@@H](CCCNC(=N)N)NC1=O [Peptide 19] (cyclo(L[dF]P[Tle][Orn]L[dR]P[Tle][Orn])) | 17.15 min | 16 µg/mL (≈ 13.6 µM) | 32 µg/mL (≈ 27.2 µM) | 4 µg/mL (≈ 3.39 µM) | 16 µg/mL (≈ 13.6 µM) | – | – | – | – | –
